Laboratory results as given in patent US8207136B2, “Nucleoside compounds and methods of use thereof” (The Board of Trustees of the University of Illinois, priority 2005, dated 2012).

What was measured:
RNA polymerase II = biological target: T1, RNA polymerase II (Homo sapiens, UniProt P24928); assay: Nuclear run-on assay, nuclei isolated from untreated HCT-116 cells then treated; assay type: biochemical; conditions: 50 μM ARC, 50 μM DRB or 2 μg/ml α-amanitin
T1 construct: nuclei were isolated from normally growing untreated HCT-116 cells and treated with each of these agents; endogenous in cells; host or cells: nuclei of HCT-116 colon cancer cells
Procedure: (§1) Run-on assays with isolated nuclei were performed as described. Briefly, cells treated with the indicated agents were lysed with hypotonic buffer (10 mM Tris-HCl pH 7.4, 10 mM NaCl and 35 mM MgCl2) and nuclei collected by centrifugation and resuspended in nuclear storage buffer (50 mM HEPES pH 8.0, 5 mM MgCl2, 0.5 mM DTT, 1 mg/ml BSA and 25% (v/v) glycerol) at about 5×10^8 nuclei/ml and stored at −80° C. Transcription reactions were performed in 200 μl volume consisting of 1×10^7 nuclei in the presence of 0.12 M KCl, 7 mM Mg(Ac)2, 25 μCi of [^32P]GTP, 500 μM ATP, UTP and CTP at 30° C. Samples were collected at various time points (18 μl/time point—0, 5, 10, 20 and 30 min) and the reaction terminated by the addition of 57 μl of Sarkosyl solution (1% Sarkosyl, 0.1 M Tris pH 8.0, 0.1 M NaCl, 10 mM EDTA and 200 μg/ml tRNA). The stopped reactions were transferred to Whatman DE81 paper, and washed four times with wash buffer (5% K2HPO4 and 0.3% Na4P2O7) for 10 min, followed by a 5-min water wash. Then the paper was briefly rinsed with 95% ethanol and allowed to dry completely. Radiation was quantitated using a liquid scintillation counter.
In order to evaluate the ability of ARC to bind to and inhibit RNA polymerase II directly (like α-amanitin) or indirectly (like DRB), nuclei were isolated from normally growing untreated HCT-116 cells and treated with each of these agents, and then assayed for rate of transcription by nuclear run-on assay.

[1] = Preliminary toxicity studies (NCI/DTP) in mice; assay type: in vivo; conditions: as high as 200 mg/Kg, 5-day period, B6D2FI mice
Text: Similarly, p21 may also act in an anti-apoptotic fashion by inducing cell-cycle arrest or by inhibiting pro-apoptotic molecules such as procaspase-3 and apoptosis signal-regulating kinasel (ASK1). […] The fact that ARC represses both survivin and p21 makes a strong case for consideration of ARC as a potential anti-tumor agent. This is further supported by the observation that ARC was >10-fold more efficient in inducing apoptosis than the other nucleoside analog DRB (FIG. 5F). This is especially intriguing because, as shown herein, ARC and DRB repress global transcription to similar extent (FIG. 2A). […] Preliminary toxicity studies from NCI/DTP indicate that concentrations as high as 200 mg/Kg were non-toxic to B6D2FI mice during a 5-day period.

[2] = tested on: leukemia cell lines CEM, HL-60, NB4 and U937; assay: TMRE staining and flow cytometry of leukemia cells; assay type: cell-based; conditions: 5 μM, 24 hours
Procedure: FIG. 7. ARC induces mitochondrial injury in leukemia cells. Different leukemia cells were either treated with DMSO (gray) or 5 μM ARC (white) for 24 hours, stained with TMRE (tetramethyl rhodamine ethyl ester) and subjected to flow cytometry. CEM cells are shown in panel (A), HL-60 in panel (B), NB4 in panel (C) and U937 in panel (D). The shift in the peak from right (DMSO; gray) to left (ARC-treated; white) is due to the lower intake of the dye caused by the loss in mitochondrial potential.
In order to further probe the mechanism of ARC-induced apoptosis, whether or not ARC causes mitochondrial injury was investigated. Permeabilization of mitochondria, followed by cytochrome c release has previously been observed for transcriptional inhibitor flavopiridol. For this analysis, leukemia cell lines CEM, HL-60, NB4 and U937 were treated with either DMSO or ARC. […] It is well known that the Bcl2 family members (eg., Bcl-2, Bcl-XL, Mcl-1) protect the mitochondrial integrity, thereby acting in an anti-apoptotic manner. It is possible that ARC modulates the expression of one or more of these proteins to cause mitochondrial injury.

HUVECs = assay: Proliferation inhibition assay; assay type: cell-based; conditions: Homo sapiens, HUVEC; 10 ng/ml VEGF, 24, 48 or 72 hours, average from two trials; read-out: IC50, HUVEC growth
Procedure: Different angiogenesis assays such as cord formation assay, motility assay and proliferation inhibition assay were performed at the developmental therapeutics program (DTP) branch of NCI (NCI/DTP) as described. HUVECs were used for all the assays. Taxol and TNP-470 were used as positive control for the assays.
For proliferation inhibition assay, HUVECs were grown in the absence of growth factors for 24 hours and then stimulated with 10 ng/ml VEGF and were treated with either DMSO or different concentrations of ARC for 24 hours, 48 hours or 72 hours.

[3] = tested on: RNA polymerase II transcription; assay: Nuclear run-on assay, nuclei from treated HCT-116 cells; assay type: cell-based, human; conditions: HCT-116 cells treated 2 hours with 1 mM
Procedure: as §1
Some transcriptional inhibitors such as DRB and flavopiridol repress p21 and hdm2 while increasing p53 levels. […] To evaluate this activity, HCT-116 cells were treated with one of DMSO (control), ARC or DRB, and nuclei were isolated. These nuclei were assayed for rate of transcription either in the presence or absence of α-amanitin using the nuclear run-on assay. […] If ARC inhibits polymerase I and III transcription, the rate of transcription should be substantially lower in the ARC+α-amanitin (FIG. 2A; curve 5) when compared with DMSO+α-amanitin (FIG. 2A; curve 4). However both of these rates of transcription were similar, implying that ARC might preferentially affect only RNA polymerase II transcription.

P-TEFb (Cdk9/Cyclin T1) = biological target: T2, P-TEFb (Cdk9/Cyclin T1) (Homo sapiens, UniProt P50750); assay: P-TEFb kinase assay with GST-CTD as substrate; assay type: biochemical; conditions: 30° C., 1 hour
T2 construct: gift from Dr. Nekhai (Howard University)
T2 sequence (P50750 whole entry, species assumed): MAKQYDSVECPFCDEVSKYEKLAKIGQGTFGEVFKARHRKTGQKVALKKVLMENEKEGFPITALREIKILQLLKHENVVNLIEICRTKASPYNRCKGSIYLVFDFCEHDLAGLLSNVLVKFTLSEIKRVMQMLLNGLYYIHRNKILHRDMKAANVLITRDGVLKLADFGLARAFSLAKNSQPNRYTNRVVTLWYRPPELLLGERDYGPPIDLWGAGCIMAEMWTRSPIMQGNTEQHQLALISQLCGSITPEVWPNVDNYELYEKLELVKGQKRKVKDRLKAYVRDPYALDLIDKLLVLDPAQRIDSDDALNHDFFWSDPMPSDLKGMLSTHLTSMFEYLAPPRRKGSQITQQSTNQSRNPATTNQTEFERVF
T2 sequence (O60563 whole entry partner, species assumed): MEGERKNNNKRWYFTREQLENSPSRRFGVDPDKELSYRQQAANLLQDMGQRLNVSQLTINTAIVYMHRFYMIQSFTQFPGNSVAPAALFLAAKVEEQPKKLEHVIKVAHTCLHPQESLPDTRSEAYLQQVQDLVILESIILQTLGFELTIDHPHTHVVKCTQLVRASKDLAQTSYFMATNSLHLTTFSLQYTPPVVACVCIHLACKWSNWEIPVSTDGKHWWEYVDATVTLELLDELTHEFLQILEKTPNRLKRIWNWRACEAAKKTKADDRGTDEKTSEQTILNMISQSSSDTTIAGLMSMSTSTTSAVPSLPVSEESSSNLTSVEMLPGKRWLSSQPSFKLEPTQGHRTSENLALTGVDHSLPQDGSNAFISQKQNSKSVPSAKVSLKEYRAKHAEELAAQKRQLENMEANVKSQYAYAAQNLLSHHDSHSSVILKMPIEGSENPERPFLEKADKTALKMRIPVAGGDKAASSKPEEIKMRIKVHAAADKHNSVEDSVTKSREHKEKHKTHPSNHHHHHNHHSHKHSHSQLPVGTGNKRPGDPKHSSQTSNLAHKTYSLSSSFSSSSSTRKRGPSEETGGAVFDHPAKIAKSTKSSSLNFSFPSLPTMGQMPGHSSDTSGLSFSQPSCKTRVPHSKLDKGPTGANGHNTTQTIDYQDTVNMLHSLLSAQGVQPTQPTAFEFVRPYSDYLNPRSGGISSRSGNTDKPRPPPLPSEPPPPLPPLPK
Procedure: Purified P-TEFb (Cdk9/Cyclin T1) protein and GST-CTD (GST-tagged C-terminal domain of RNA polymerase II) expression plasmid were gifts from Dr. Nekhai (Howard University). GST-CTD protein was expressed in BL21 E. coli (Stratagene) and purified using a GST protein purification kit (Amersham Biosciences). The kinase assay was performed at 30° C. for 1 hour in the presence of P-TEFb with or without the addition of ARC. The phosphorylation levels of GST-CTD were detected with anti-phospho RNA polymerase II antibody (4735; Cell Signaling).
It is known that DRB and flavopiridol inhibit transcription by blocking the kinase activity of P-TEFb, which in turn leads to decreased phosphorylation of RNA polymerase II C-terminal domain (CTD). To determine if ARC operates by a similar mechanism, a kinase assay was performed with purified P-TEFb using GST-CTD (GST tagged C-terminal domain of RNA polymerase II) as the substrate. […] To evaluate this effect in vivo, HCT-116 cells were treated with ARC for 3 hours and analyzed levels of phospho-RNA polymerase II by immunoblotting. While the total amount of RNA polymerase II remained unchanged, phosphorylation of the RNA polymerase II CTD decreased upon ARC treatment (FIG. 2D), consistent with the in vitro kinase assay.

## NNc1c(C(N)=O)c2c(N)ncnc2n1[C@@H]1O[C@H](CO)[C@@H](O)[C@H]1O [ARC, 4-amino-6-hydrazino-7-beta-D-ribofuranosyl-7H-pyrrolo[2,3-d]-pyrimidine-5-carboxamide]
RNA polymerase II
  rate of transcription, agent added to isolated nuclei: did not affect the rate of transcription
[1]
  toxicity: non-toxic
[2]
  mitochondrial potential (TMRE): mitochondrial depolarization
HUVECs
  IC50: ~47 nM
[3]
  rate of transcription versus control nuclei: lower
[3]; 2 μg/ml α-amanitin
  rate of transcription in the presence of α-amanitin versus DMSO+α-amanitin: similar
P-TEFb (Cdk9/Cyclin T1)
  phosphorylation of GST-CTD by P-TEFb: potently decreased the phosphorylation of GST-CTD
